The source of these data is the NIST ThermoML archive (doi:10.1016/j.tca.2018.06.008).

The conditions of the data set: 101.33 kPa, Liquid, Hot disk method.

The structures appear in SMILES notation. Numbers after ± are expanded uncertainties.

Take `O` [water]: the thermal conductivity runs as follows: (298.15 K) 0.6132 ± 0.011 W/m/K; (303.15 K) 0.6201 ± 0.012 W/m/K; (308.15 K) 0.6249 ± 0.012 W/m/K; (313.15 K) 0.6302 ± 0.013 W/m/K; (318.15 K) 0.6368 ± 0.011 W/m/K; (323.15 K) 0.6427 ± 0.014 W/m/K.
Consider `OCCO` [1,2-ethanediol], for which the thermal conductivity is listed as 0.2514 ± 0.0074 W/m/K (298.15 K); 0.2535 ± 0.0061 W/m/K (303.15 K); 0.2551 ± 0.012 W/m/K (308.15 K); 0.2559 ± 0.0076 W/m/K (313.15 K); 0.2568 ± 0.011 W/m/K (318.15 K); 0.2579 ± 0.011 W/m/K (323.15 K).
